{
  "source": "patent US10576151B2",
  "about": "“Ciclopirox for use in modulation of glucose homeostasis” (UNIVERSITY OF SOUTH CAROLINA, priority 2015, dated 2020)",
  "key": {"[1]": {"test_system": "wt mice receiving normal diet", "assay": "Fasting glucose in non-diabetic wild type mice on normal diet", "format": "in vivo, C57BI/6 mice", "settings": "non-diabetic wt mice on normal diet with CPX (FIG. 5B, FIG. 7A)", "excerpt": "In Vivo Analysis of Anti-Diabetic Effect of CPX. Mice were randomly grouped. A group of C57BI/6 mice 4-5 weeks old, were fed with either a solution of 10% sucrose and a diet containing 40% kcal as a high-fat diet (HFD; Open Source Diets (New Brunswick, N.J., USA) D12451, 40% calories/fat with free access to (10%) sweetened water (sucrose) or a control chow diet containing 10% of kcal as fat (low-fat diet) and drinking water with no added sucrose (control). Mice with a glucose concentration exceeding 180 mg/dL were considered diabetic, after 2 consecutive glucose measurements. The blood glucose levels were measured using an Accu-Check blood glucose monitor (Roche, Indianapolis, Ind., USA) using blood sample collected from the tail vein. […] Glucose levels of mice were measured by an Accu-Chek Active meter (ROCHE) with blood sample obtained from the tail. […] For insulin resistance test, mice were injected intraperitoneally at a dose of 0.75 units/kg with human insulin (0.75 U/kg body weight; Sigma) at different time points as indicated, as for glucose tolerance after insulin injection and blood glucose was measured as described. In order to test if the antidiabetic activity of CPX was elicited only in diabetic mice or in non-diabetic mice as well, plasma glucose levels were assessed in wt mice that were receiving normal diet in combination with CPX."}, "BiP, GRP94 and CHOP": {"test_system": "BiP, GRP94 and CHOP", "assay": "Western blot of ER stress markers in islets in culture", "format": "cell-based, mouse", "procedure": "Western Blotting. The mouse islets were treated with CPX 20 μM for 24 h and lysed in RIPA buffer [50 mM Tris, pH 7.2; 150 mM NaCl; 1% sodium deoxycholate; 0.1% SDS; 1% Triton-X 100; 10 mM NaF; 1 mM Na3VO4; protease inhibitor cocktail (1:1000, Sigma, St. Louis, Mo.)] and were subjected to immunoblot analysis by standard methods. Proteins were resolved on a 10% SDS-PAGE and transferred to a nitrocellulose membrane (Bio-Rad, Hercules, Calif.). Membranes were probed overnight with GADD153 (F-168), sc-575 from Santa Cruz Biotechnology (1:50); p21 (F-5), sc-6246 from Santa Cruz Biotechnology (1:200); actin, clone C4 MAB1501 from Millipore (Billerica, Mass., USA) (1:2000); BiP antibody (cat. no. 3183) from Cell Signaling (Danvers, Mass., USA) (1:1000); GRP94 antibody (H-212), sc-11402 from Santa Cruz Biotechnology (1:500); insulin rabbit polyclonal H-86, sc-9168 from Santa Cruz Biotechnology (1:500) antibodies followed by incubation with horseradish peroxidase-conjugated (HRP) anti-mouse (1:10000), goat anti-rabbit IgG (1:10000, Santa Cruz biotechnology Inc., Santa Cruz, Calif., USA) for 1 hr. After incubation with enhanced chemiluminescence reagents (Santa Cruz biotechnology Inc.), membranes were analyzed using an Image J software for Windows.\nIn order to understand better how CPX operates in β cells, it was tested to determine if it affected the efficiency by which insulin is produced following glucose stimulation. […] In view of the antidiabetic activity of CPX in vivo, the inhibition of insulin release appears contradictory. […]\nWhile modulation of insulin release by CPX constitutes a challenging mechanism by which CPX may affect ER stress, how CPX regulates insulin expression remains obscure. […] To test this hypothesis, islets were exposed to iron citrate, alone or combined with CPX, and the levels were recorded of chaperones BiP, GRP94 and CHOP, as well as of insulin."}, "p21": {"test_system": "p21", "assay": "p21 expression in the pancreas of mice that received CPX (immunoblot)", "format": "in vivo", "settings": "wild type mice, oral CPX 0-25 mg/kg daily for 5 days; effect from as low as 5 mg/kg (FIG. 4)", "procedure": "Western Blotting. The mouse islets were treated with CPX 20 μM for 24 h and lysed in RIPA buffer [50 mM Tris, pH 7.2; 150 mM NaCl; 1% sodium deoxycholate; 0.1% SDS; 1% Triton-X 100; 10 mM NaF; 1 mM Na3VO4; protease inhibitor cocktail (1:1000, Sigma, St. Louis, Mo.)] and were subjected to immunoblot analysis by standard methods. Proteins were resolved on a 10% SDS-PAGE and transferred to a nitrocellulose membrane (Bio-Rad, Hercules, Calif.). […] After incubation with enhanced chemiluminescence reagents (Santa Cruz biotechnology Inc.), membranes were analyzed using an Image J software for Windows. To determine if CPX treatment induces p21 levels in the pancreas, mice received orally CPX at 0-25 mg/kg daily for 5 days and the levels of p21 were assessed. […]"}},
  "note": "“Also recorded” adds a separate entry of the source.",
  "data": [
    {"molecule": "Cc1cc(C2CCCCC2)n(O)c(=O)c1", "note": "[CPX, 6-cyclohexyl-1-hydroxy-4-methylpyridin-2(1H)-one]", "values": [
      {"measurement": "glucose levels (fasting)", "setting": "[1]", "value": "no reduction of glucose levels was recorded; also recorded: not affected"},
      {"measurement": "ER stress induction (BiP, GRP94, CHOP)", "setting": "BiP, GRP94 and CHOP; islets, iron citrate with concomitant CPX (FIG. 12A)", "value": "compromised the effects of iron citrate"},
      {"measurement": "levels of BiP, GRP94 and CHOP", "setting": "BiP, GRP94 and CHOP; wt islets, high glucose with CPX (FIG. 11)", "value": "alleviated the levels of BiP, GRP94 and CHOP"},
      {"measurement": "p21 expression in the pancreas", "setting": "p21", "value": "effectively stimulated the expression of p21"}
    ]}
  ]
}
